Reference: PMC3510438, “The transmembrane tyrosines Y56, Y91 and Y167 play important roles in determining the affinity and transport rate of the rabbit proton-coupled peptide transporter PepT1” (The International Journal of Biochemistry & Cell Biology, 2009)
Substitutions are numbered along the chain they refer to. “And” between values parts separate entries of the source, which are not always exact repeats. Equal values may be shown once. Where a SMILES comes first, the peptide text is derived from it.

Legend:
Assay type in all cases: cell-based, rabbit
Details in all cases: against 0.4 μM [3H]-D-Phe-L-Gln uptake
wild-type rPepT1 = biological target: T1, wild-type rPepT1 (Oryctolagus cuniculus, UniProt P36836); test: Competition of [3H]-D-Phe-L-Gln uptake into Xenopus oocytes, Ki by method of Deves and Boyd
T1 construct: expressed in transfected cells; host or cells: Xenopus laevis oocytes injected with cRNA
T1 sequence (P36836 1-707): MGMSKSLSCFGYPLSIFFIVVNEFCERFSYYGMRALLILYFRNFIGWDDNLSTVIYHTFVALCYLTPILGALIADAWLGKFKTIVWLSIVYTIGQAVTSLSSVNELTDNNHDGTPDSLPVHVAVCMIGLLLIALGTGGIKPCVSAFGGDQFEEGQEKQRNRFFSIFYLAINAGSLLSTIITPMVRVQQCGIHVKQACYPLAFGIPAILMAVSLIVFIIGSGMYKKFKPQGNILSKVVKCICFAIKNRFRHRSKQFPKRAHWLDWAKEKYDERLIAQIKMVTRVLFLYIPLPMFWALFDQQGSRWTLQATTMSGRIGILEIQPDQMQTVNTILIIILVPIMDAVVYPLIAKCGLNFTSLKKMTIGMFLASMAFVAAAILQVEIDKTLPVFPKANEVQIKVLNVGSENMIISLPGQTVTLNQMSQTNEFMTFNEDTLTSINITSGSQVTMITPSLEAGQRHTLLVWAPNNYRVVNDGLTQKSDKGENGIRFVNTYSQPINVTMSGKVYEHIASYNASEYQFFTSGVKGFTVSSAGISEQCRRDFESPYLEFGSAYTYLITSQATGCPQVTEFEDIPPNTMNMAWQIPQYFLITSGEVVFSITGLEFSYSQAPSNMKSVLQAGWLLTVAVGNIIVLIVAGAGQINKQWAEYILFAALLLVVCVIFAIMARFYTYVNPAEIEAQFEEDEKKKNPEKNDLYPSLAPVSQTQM
Protocol: (§1) rPepT1 constructs were linearised with XbaI (New England Biolabs, UK) and cRNA generated by in vitro transcription (T7 mMessage mMachine, Ambion, Cambridgeshire, UK). Xenopus laevis oocytes were obtained under MS222 anaesthesia (0.2%, w/v) in accordance with the UK Animals (Scientific Procedures) Act, 1986, and maintained at 18 °C in modified Barth's medium (88 mM NaCl, 1 mM KCl, 0.82 mM MgSO4, 2.4 mM NaHCO3, 0.42 mM CaCl2, 10 mM Hepes, 5 mM sodium pyruvate, 50 μg ml^−1 gentamicin (Fluka, Poole, UK), adjusted to pH 7.6 with 1 M NaOH). Transport measurements were performed at least 72 h after micro-injection of oocytes with 27nl cRNA (1 μg/μl), with medium changed daily.
(§2) Uptake of [^3H]-D-Phe-L-Gln (17.4 Ci/mmole, custom synthesised, Cambridge Research Biochemicals, Stockton-on-Tees, UK) was performed as previously described ([Meredith, 2004]). Briefly, 5 oocytes were incubated in 100 μl of uptake medium (95 mM NaCl, 2 mM KCl, 1 mM CaCl2, 0.42 mM MgCl2, 10 mM Tris/Hepes pH 7.4 or Tris/Mes pH 5.5) with tracer (0.4 μM) [^3H]-D-Phe-L-Gln. After incubation, the oocytes were washed sequentially five times in 1 ml of ice-cold 120 mM NaCl solution, lysed individually with 100 μl 2% (w/v) SDS and liquid scintillation counted. As a control non-injected oocytes were also incubated in uptake medium with D-Phe-L-Gln as above.
(§3) The affinity of wild-type and mutant rPepT1 transporters were assessed by competition studies with 0.4 μM [^3H]-D-Phe-L-Gln and Gly-L-Gln present in the uptake medium in concentrations from 0 to 2 mM using the protocol above, and the Ki calculated using the method of [Deves and Boyd (1989)].

Y12F-rPepT1 = biological target: T2, Y12F-rPepT1 (Oryctolagus cuniculus, UniProt P36836, Y12F); test: Competition of [3H]-D-Phe-L-Gln uptake into Xenopus oocytes, Ki
T2 construct: expressed in transfected cells; host or cells: Xenopus laevis oocytes injected with cRNA
T2 sequence (P36836 1-707 Y12F): T1 sequence (P36836 1-707) with Y12F
Protocol: as §1, §2, §3

Y345F-rPepT1 = biological target: T3, Y345F-rPepT1 (Oryctolagus cuniculus, UniProt P36836, Y345F); test: as above
T3 construct: expressed in transfected cells; host or cells: Xenopus laevis oocytes injected with cRNA
T3 sequence (P36836 1-707 Y345F): T1 sequence (P36836 1-707) with Y345F
Protocol: as §1, §2, §3

NCC(=O)N[C@@H](CCC(N)=O)C(=O)O [Gly-L-Gln] (H-Gly-Gln-OH)
Ki (wild-type rPepT1; pHout 5.5): 320 µM and 330 µM | Ki (wild-type rPepT1; pHout 7.4): 110 ± 10 µM | Ki (Y12F-rPepT1; pHout 5.5): 220 ± 20 µM | Ki (Y12F-rPepT1; pHout 7.4): 90 ± 20 µM | Ki (Y345F-rPepT1; pHout 5.5): 320 ± 70 µM | Ki (Y345F-rPepT1; pHout 7.4): 180 ± 50 µM
